Measured values from US8765767B2, “Positive allosteric modulators of mGluR2” (Bristol-Myers Squibb Company, priority 2012, dated 2014).

Columns and labels:
mGluR2/3 [1] = settings: rats treated with PCP; cited from earlier work
mGluR2/3 [2] = settings: schizophrenia patients; cited from earlier work
human mGluR2 = target: T1, human mGluR2 (Homo sapiens, UniProt Q14416); assay: mGluR2 cAMP assay (HTRF) in HEK293 cells clonally expressing human mGluR2; assay type: cell-based; settings: HEK293 cells expressing human mGluR2, 1 μM forskolin, 1 μM LY-341495, 30 min
T1 construct: expressed in transfected cells; host or cells: HEK293 clonal line
Protocol: • Cell Culture. Clonally expressed human mGluR2 in HEK293 background was glutamate starved overnight in media without glutamine (GIBCO MEM 12360), containing 10% FBS, 1% penicillin streptomycin. • cAMP Measurement. On the day of the assay, media was removed, cells washed with PBS, cells harvested and pelleted by centrifugation. Cell pellets were resuspended in stimulation buffer without forskolin and counted. A solution of 1.25×10^6 cells/mL was prepared and dispensed to plates using a Combi liquid handler (Thermo). A standard curve was created using a top concentration of cAMP of 1 μM in the stimulation buffer, 1:3 dilutions over 14 points in the absence of cells. Plates were read by time-resolved fluorescence at […] and a ratio was calculated via in house software, (665 nM/618 nM)*10^4. In house software converted the fluorescence value ratios to units of cAMP concentration, which is then used to calculate % inhibition for each test compound. • MGluR2 cAMP Assay Materials and Methods. Compounds were added to white, standard volume 384 non-binding surface plates (Corning 3574). Cells were resuspended in stimulation buffer consisting of Hanks Balanced Salt Solution (14175-095) pH 7.0, 20 mM HEPES, 2.0 mM CaCl2, 5.0 mM MgCl2, and 1 mM IBMX (Sigma 15879), 1 μM forskolin, and 1 μM LY-341495 for 30 min. Buffer without forskolin was used as a negative control. Solutions of D2 and cryptate detection reagents from the CISBIO dynamic cAMP kit (62AM4PEJ) were diluted 1:40 in lysis buffer. Lysis buffer consisted of 50 mM Phosphate Buffer pH 7.0, 800 mM Potassium Fluoride, 0.2% BSA, and 1.0% Triton. Assay reaction was terminated by addition of detection reagents in lysis buffer. One hour later, plates were read on a PE Viewlux. Data was extracted, and concentration response curves generated by fitting the data to a standard 4 parameter logistic equation from which EC50 values were determined.

mGluR2/3 [3] = settings: GAD patients; cited from earlier work

T1 sequence (Q14416 19-872): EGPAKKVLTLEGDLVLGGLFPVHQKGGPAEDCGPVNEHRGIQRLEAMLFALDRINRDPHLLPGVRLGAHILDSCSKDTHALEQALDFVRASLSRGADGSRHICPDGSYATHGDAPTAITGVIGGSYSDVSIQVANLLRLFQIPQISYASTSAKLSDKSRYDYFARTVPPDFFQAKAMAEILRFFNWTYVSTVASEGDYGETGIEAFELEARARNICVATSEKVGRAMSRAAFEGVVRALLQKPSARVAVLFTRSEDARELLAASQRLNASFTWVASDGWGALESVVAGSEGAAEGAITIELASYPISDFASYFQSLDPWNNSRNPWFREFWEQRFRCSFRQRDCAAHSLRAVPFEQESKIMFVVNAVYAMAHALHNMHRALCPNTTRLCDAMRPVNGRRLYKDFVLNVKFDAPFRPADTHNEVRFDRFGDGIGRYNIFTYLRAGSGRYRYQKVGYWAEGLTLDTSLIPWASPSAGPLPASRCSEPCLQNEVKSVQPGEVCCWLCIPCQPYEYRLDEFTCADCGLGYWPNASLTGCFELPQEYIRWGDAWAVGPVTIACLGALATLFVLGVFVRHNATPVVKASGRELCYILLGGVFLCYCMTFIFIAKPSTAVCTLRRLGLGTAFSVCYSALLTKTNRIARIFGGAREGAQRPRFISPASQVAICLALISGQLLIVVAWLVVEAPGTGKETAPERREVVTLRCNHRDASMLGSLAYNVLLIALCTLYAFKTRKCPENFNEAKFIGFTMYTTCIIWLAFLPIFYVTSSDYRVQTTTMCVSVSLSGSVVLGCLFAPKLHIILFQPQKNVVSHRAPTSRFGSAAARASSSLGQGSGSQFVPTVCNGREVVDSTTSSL

Row | Compound | EC50 (human mGluR2) | also measured
1 | N[C@@]1(C(=O)O)CC[C@H]2[C@H](C(=O)O)[C@H]21 [LY-354740] | – | behavioral effects of PCP (hyper-locomotion, working memory deficits) (mGluR2/3 [1]): reversed the behavioral effects of PCP; brain glutamate levels (mGluR2/3 [1]): lowered brain glutamate levels
2 | CSCC[C@H](N)C(=O)N[C@@]1(C(=O)O)CS(=O)(=O)[C@H]2[C@H](C(=O)O)[C@H]21 [LY-2140023] | – | relief of positive and negative symptoms (mGluR2/3 [2]): relief of positive and negative symptoms
3 | Fc1ccc(F)c([C@H]2C[C@@H]2CNc2ccn3c(CC4CC4)nnc3c2Cl)c1 [Example 43, 8-Chloro-3-(cyclopropylmethyl)-N-(((1S,2S)-2-(2,5-difluorophenyl)cyclopropyl)methyl)-[1,2,4]triazolo[4,3-a]pyridin-7-amine] | 2 nM | –
4 | Clc1c(NC2CCC(c3ccccc3)C2)ccn2c(CC3CC3)nnc12 (stereo not drawn) [Example 2, 8-Chloro-3-(cyclopropylmethyl)-N-(3-phenylcyclopentyl)-[1,2,4]triazolo[4,3-a]pyridin-7-amine] | 26 nM | –
5 | Fc1ccccc1[C@@H]1C[C@H]1CNc1ccn2c(CC3CC3)nnc2c1Cl [Example 38, 8-Chloro-3-(cyclopropylmethyl)-N-(((1R,2R)-2-(2-fluorophenyl)cyclopropyl)methyl)-[1,2,4]triazolo[4,3-a]pyridin-7-amine] | 4 nM | –
6 | CN(C[C@@H]1C[C@H]1c1ccc(F)cc1)c1ccn2c(CC3CC3)nnc2c1C(F)(F)F [Example 40, 3-(Cyclopropylmethyl)-N-(((1R,2R)-2-(4-fluorophenyl)cyclopropyl)methyl)-N-methyl-8-(trifluoromethyl)-[1,2,4]triazolo[4,3-a]pyridin-7-amine] | 7 nM | –
7 | Fc1cnc(C2CC2CNc2ccn3c(CC4CC4)nnc3c2Cl)nc1 (stereo not drawn) [Example 12, 8-Chloro-3-(cyclopropylmethyl)-N-((2-(5-fluoropyrimidin-2-yl)cyclopropyl)methyl)-[1,2,4]triazolo[4,3-a]pyridin-7-amine] | 83 nM | –
8 | Clc1c(NC[C@@H]2CCC[C@H]2c2ccccc2)ccn2c(CC3CC3)nnc12 (single isomer, unassigned) [Example 46] | 5 nM | –
9 | C[C@H](N)C(=O)N[C@@]1(C(=O)O)CC[C@H]2[C@H](C(=O)O)[C@H]21 [LY-544344] | – | therapeutic effect for anxiety (mGluR2/3 [3]): therapeutic effects
10 | Clc1c(NCC2CC2c2ccncc2)ccn2c(CC3CC3)nnc12 (stereo not drawn) [Example 18, 8-Chloro-3-(cyclopropylmethyl)-N-((2-(pyridin-4-yl)cyclopropyl)methyl)-[1,2,4]triazolo[4,3-a]pyridin-7-amine] | 244 nM | –
11 | COc1c(F)ccc(F)c1[C@H]1C[C@@H]1CNc1ccn2c(CC3CC3)nnc2c1Cl [Example 10, 8-Chloro-3-(cyclopropylmethyl)-N-(((1S,2S)-2-(3,6-difluoro-2-methoxyphenyl)cyclopropyl)methyl)-[1,2,4]triazolo[4,3-a]pyridin-7-amine] | 6 nM | –
12 | COc1cccc(F)c1[C@@H]1C[C@H]1CNc1ccn2c(CC3CC3)nnc2c1Cl [Example 34, 8-Chloro-3-(cyclopropylmethyl)-N-(((1R,2R)-2-(2-fluoro-6-methoxyphenyl)cyclopropyl)methyl)-[1,2,4]triazolo[4,3-a]pyridin-7-amine] | 1 nM | –
13 | Fc1ccc([C@H]2C[C@@H]2CNc2ccn3c(CC(F)(F)F)nnc3c2C(F)(F)F)cc1 [Example 21, N-(((1S,2S)-2-(4-Fluorophenyl)cyclopropyl)methyl)-3-(2,2,2-trifluoroethyl)-8-(trifluoromethyl)-[1,2,4]triazolo[4,3-a]pyridin-7-amine] | 2 nM | –
14 | COc1ccccc1[C@@H]1C[C@H]1CNc1ccn2c(CC3CC3)nnc2c1Cl (relative stereo) [Example 6, Trans-8-chloro-3-(cyclopropylmethyl)-N-((2-(2-methoxyphenyl)cyclopropyl)methyl)-[1,2,4]triazolo[4,3-a]pyridin-7-amine] | 7 nM | –
15 | Fc1ccc(C2(CNc3ccn4c(CC5CC5)nnc4c3Cl)CC2)cc1 [Example 16, 8-chloro-3-(cyclopropylmethyl)-N-((1-(4-fluorophenyl)cyclopropyl)methyl)-[1,2,4]triazolo[4,3-a]pyridin-7-amine] | 46 nM | –
16 | Clc1c(NC[C@@H]2CCC[C@H]2c2ccccc2)ccn2c(CC3CC3)nnc12 (racemic) [Example 3, (+/−)Trans-8-chloro-3-(cyclopropylmethyl)-N-((2-phenylcyclopentyl)methyl)-[1,2,4]triazolo[4,3-a]pyridin-7-amine] | 5 nM | –
17 | CN(C[C@H]1C[C@@H]1c1ccc(F)cc1)c1ccn2c(CC3CC3)nnc2c1C(F)(F)F [Example 39, 3-(Cyclopropylmethyl)-N-(((1S,2S)-2-(4-fluorophenyl)cyclopropyl)methyl)-N-methyl-8-(trifluoromethyl)-[1,2,4]triazolo[4,3-a]pyridin-7-amine] | 1 nM | –
